Positions of bridges follow the written chain, without caps; N, C: chain ends. Residues, ends and D or L forms follow the SMILES beside them.

For the experiment, the species on record is Rattus norvegicus. Put plainly: Adenylyl cyclase stimulating activity expressed as effective dose was measured in rat osteosarcoma 17/2 cells. In kind it is functional, cell-based.
The compound H-SVSEIQLMHNLGKHLNSMERVEWLRKLLQD-NH2 showed an EC50 of 20 nM.
For `CC[C@H](C)[C@H](NC(=O)[C@H](CCC(=O)O)NC(=O)[C@H](CO)NC(=O)[C@@H](NC(=O)[C@@H](N)CO)C(C)C)C(=O)N[C@@H](CCC(N)=O)C(=O)N[C@@H](CC(C)C)C(=O)N[C@@H](CCSC)C(=O)N[C@@H](Cc1c[nH]cn1)C(=O)N[C@@H](CC(N)=O)C(=O)N[C@@H](CC(C)C)C(=O)NCC(=O)N[C@@H](CCCCN)C(=O)N[C@@H](Cc1c[nH]cn1)C(=O)N[C@@H](CC(C)C)C(=O)N[C@@H](CC(N)=O)C(=O)N[C@@H](CO)C(=O)N[C@@H](CCSC)C(=O)N[C@@H](CCC(=O)O)C(=O)N[C@@H](CCCN=C(N)N)C(=O)N[C@H](C(=O)N[C@H]1CCC(=O)NCCCC[C@@H](C(=O)N[C@@H](CC(C)C)C(=O)N[C@@H](CC(C)C)C(=O)N[C@@H](CCC(N)=O)C(=O)N[C@@H](CC(=O)O)C(=O)N[C@H](C(N)=O)C(C)C)NC(=O)[C@H](CCCN=C(N)N)NC(=O)[C@H](CC(C)C)NC(=O)[C@H](Cc2c[nH]c3ccccc23)NC1=O)C(C)C` (H-SVSEIQLMHNLGKHLNSMERVEWLRKLLQDV-NH2; lactam 22-26), the EC50 was found to be 3.3 nM.
Next, `CC[C@H](C)[C@H](NC(=O)[C@H](CCC(=O)O)NC(=O)[C@H](CO)NC(=O)[C@@H](NC(=O)[C@@H](N)CO)C(C)C)C(=O)N[C@@H](CCC(N)=O)C(=O)N[C@@H](CC(C)C)C(=O)N[C@@H](CCSC)C(=O)N[C@@H](Cc1c[nH]cn1)C(=O)N[C@@H](CC(N)=O)C(=O)N[C@@H](CC(C)C)C(=O)NCC(=O)N[C@@H](CCCCN)C(=O)N[C@@H](Cc1c[nH]cn1)C(=O)N[C@@H](CC(C)C)C(=O)N[C@@H](CC(N)=O)C(=O)N[C@@H](CO)C(=O)N[C@@H](CCSC)C(=O)N[C@@H](CCC(=O)O)C(=O)N[C@@H](CCCN=C(N)N)C(=O)N[C@H](C(=O)N[C@@H](CCC(=O)O)C(=O)N[C@@H](Cc1c[nH]c2ccccc12)C(=O)N[C@@H](CC(C)C)C(=O)N[C@@H](CCCN=C(N)N)C(=O)N[C@@H](CCCCN)C(=O)N[C@H]1CCCCNC(=O)C[C@@H](C(=O)N[C@H](C(N)=O)C(C)C)NC(=O)[C@H](CCC(N)=O)NC(=O)[C@H](CC(C)C)NC1=O)C(C)C`: 40.3 nM; `CC[C@H](C)[C@H](NC(=O)[C@H](CCC(=O)O)NC(=O)[C@H](CO)NC(=O)[C@@H](NC(=O)[C@@H](N)CO)C(C)C)C(=O)N[C@@H](CCC(N)=O)C(=O)N[C@@H](CC(C)C)C(=O)N[C@@H](CCSC)C(=O)N[C@@H](Cc1c[nH]cn1)C(=O)N[C@@H](CC(N)=O)C(=O)N[C@@H](CC(C)C)C(=O)NCC(=O)N[C@@H](CCCCN)C(=O)N[C@@H](Cc1c[nH]cn1)C(=O)N[C@@H](CC(C)C)C(=O)N[C@@H](CC(N)=O)C(=O)N[C@@H](CO)C(=O)N[C@@H](CCSC)C(=O)N[C@@H](CCC(=O)O)C(=O)N[C@@H](CCCN=C(N)N)C(=O)N[C@H](C(=O)N[C@H]1CCC(=O)NCCCC[C@@H](C(=O)N[C@@H](CC(C)C)C(=O)N[C@@H](CC(C)C)C(=O)N[C@@H](CCC(N)=O)C(=O)N[C@@H](CC(=O)O)C(N)=O)NC(=O)[C@H](CCCN=C(N)N)NC(=O)[C@H](CC(C)C)NC(=O)[C@H](Cc2c[nH]c3ccccc23)NC1=O)C(C)C` (H-SVSEIQLMHNLGKHLNSMERVEWLRKLLQD-NH2; lactam 22-26): 20 nM.
Next, H-SVSEIQLMHNLGKHLNSMERVEWLRKKLQD-NH2: 20 nM; `CC[C@H](C)[C@H](NC(=O)[C@H](CCC(=O)O)NC(=O)[C@H](CO)NC(=O)[C@@H](NC(=O)[C@@H](N)CO)C(C)C)C(=O)N[C@@H](CCC(N)=O)C(=O)N[C@@H](CC(C)C)C(=O)N[C@@H](CCSC)C(=O)N[C@@H](Cc1c[nH]cn1)C(=O)N[C@@H](CC(N)=O)C(=O)N[C@@H](CC(C)C)C(=O)NCC(=O)N[C@@H](CCCCN)C(=O)N[C@@H](Cc1c[nH]cn1)C(=O)N[C@@H](CC(C)C)C(=O)N[C@@H](CC(N)=O)C(=O)N[C@@H](CO)C(=O)N[C@@H](CCSC)C(=O)N[C@@H](CCC(=O)O)C(=O)N[C@@H](CCCN=C(N)N)C(=O)N[C@H](C(=O)N[C@@H](CCC(=O)O)C(=O)N[C@@H](Cc1c[nH]c2ccccc12)C(=O)N[C@@H](CC(C)C)C(=O)N[C@@H](CCCN=C(N)N)C(=O)N[C@@H](CCCCN)C(=O)N[C@@H](CC(C)C)C(=O)N[C@@H](CC(C)C)C(=O)N[C@@H](CCC(N)=O)C(=O)N[C@@H](CC(=O)O)C(=O)N[C@H](C(N)=O)C(C)C)C(C)C`: 11.5 nM.
